The text below walks through data of PMC6018403 (Frontiers in Pharmacology, 2018).

A short description of this data set: in vivo. More on the design: species or system Sprague-Dawley rats. The conditions noted are these: male, Sprague-Dawley, rat, po. As for the experimental part: For the PK study of berberine and glycyrrhizic acid, rats were randomly divided into four groups (n = 8 for each group) before oral administration. Two groups were respectively treated with 59.4 mg/kg of berberine and 84.8 mg/kg of glycyrrhizic acid; the third group was treated with 59.4 mg/kg of berberine and 2.36 g/kg of licorice water decoction (0.5 g/mL); and the last group received 59.4 mg/kg of berberine and 84.8 mg/kg of glycyrrhizic acid. The dosage of single compounds were calculated according to their contents in the administrated GQD extract. Sample collection were the same as described for GQD. […] The plasma samples were stored at −80°C. Samples were prepared for LC/MS/MS analysis as described in our previous study (Qiao et al., [2012]), as described in Supplemental Data. LC/MS/MS calibration and quantitation data were processed with Xcalibur 2.0.7 software (ThermoFisher). The maximal plasma concentrations (Cmax) and their time of occurrence (Tmax) were obtained directly from the measured data. Other pharmacokinetic parameters were calculated by non-compartment or compartment models using WinNonlin® software (v6.1, Pharsight). Unless otherwise stated, results were expressed as the mean ± SD. Statistical significance in differences of the means was determined by Student's t–test, with a significance level of P < 0.05.

In the case of `COc1ccc2cc3[n+](cc2c1OC)CCc1cc2c(cc1-3)OCO2` [Compound 24, berberine], the “increase of AUClast of berberine by GLY” value is “around 6 folds”. Under “59.4 mg/kg”, this compound had a Cmax of 12.2 ± 4.85 ng/mL, a Cmax of berberine of 117.12 ± 90.22 ng/mL and a T1/2 of berberine of 8.47 ± 2.90 h. In addition, the half-life (59.4 mg/kg, T1/2 of berberine) is 7.53 ± 1.65 h.

As a reminder, the Cmax is the peak of the concentration-time curve. Broadly, the half-life is the time needed for the level to fall by half in the phase considered. Read a low half-life as fast loss.
